Assay results as given in US20250381168A1, “VLA4 INHIBITORS AND USES THEREOF” (Washington University, priority 2022, published 2025).
Where two headings read alike, the source gives them in different places. Values belong to the molecule of their own block, whether it stands above or below them.

Assays:
[1] = biological target: VLA-4 (a4b1) (Homo sapiens (Human), UniProt P05556+P13612); experiment: sVCAM flow cytometry cell-based assay (inhibition of soluble VCAM-1 binding to G2 ALL cells);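 further: compounds at 0.1 to 1000 nM preincubated 30 min with G2 ALL cells, then VCAM/Fc added for 30 min, bound VCAM-1 detected by PE secondary antibody, percent binding cells by flow cytometry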
Experimental: VLA-4 (a4b1) inhibitor compounds were tested for their ability to inhibit the binding of soluble VCAM-1 to human G2 acute lymphoblastic leukemia (ALL) cells. Briefly, G2 ALL cells are pre-incubated with increasing concentrations (0.1 to 1000 nM) of compounds for 30 minutes. Soluble VCAM/Fc chimera protein (R & D systems) is then added to the mixture and the cells incubated for an additional 30 minutes. Afterwards, cells are washed and VCAM-1 is detected using a PE-conjugated secondary polyclonal antibody. In each experiment, an aliquot of cells are stained with isotype control antibodies to serve as a negative control. The percentage of VCAM-1 binding cells was then determined by flow cytometry.

[2] = test system: hematopoietic stem/progenitor cells (HSPCs); experiment: HSPC mobilization into peripheral blood, colony forming unit (CFU) assay; settings: mice
[3] = biological target: integrin a4b7 (Homo sapiens (Human), UniProt P13612+P26010); experiment: a4b7 solid phase receptor assay (SPRA); settings: recombinant human a4b7 binding to plate-coated human VCAM1 (TABLE 4)
Experimental: Wells were washed 3 times with TBS+ and blocking buffer (TBS+ with 1% bovine serum albumin), the plate was incubated for 1 hr at 37° C., and then washed 3× with TBS+ buffer. Recombinant human a4b7 (R & D Systems) was diluted to 1 μg/ml in TBS+/0.1% bovine serum albumin. Test compounds were diluted into the integrin solution and added to the washed ligand-coated plate according to a standard template with each sample repeated in triplicate. After incubation for 2 hr at room temperature, the plate was washed 3× with 150 μl of TBS+ buffer. To each well, biotinylated anti-A4 antibody (R & D Systems) at 1 μg/ml in TBS+/0.1% BSA was added and the plate covered and incubated for 1 hr at room temperature. After washing the plate 3× with TBS+ buffer, streptavidin-conjugated horseradish peroxidase (R & D Systems) diluted in TBS+ blocking buffer was added to the wells and the plate incubated for 20 min at room temperature. The plate was washed 3× with TBS+ buffer followed by addition of 50 μl of TMB substrate (Sigma T4444). After incubation for 20 min at room temperature, plates were stopped with TMB stop solution (Sigma S5689) by colorimetric detection at 450 nm wavelength using a Tecan Safire II plate reader.

[4] = as listed in TABLE 9, read-out: sVCAM IC50
[5] = as listed in TABLE 10, read-out: sVCAM IC50
[6] = inhibition of sVCAM-1 binding to human G2 ALL cells (TABLE 3), read-out: SVCAM-1, IC50
[7] = single dose, peripheral blood, 2 hr post dose (TABLE 9)
[8] = single dose, peripheral blood, 2 hr post dose (TABLE 10)
[9] = single dose, peripheral blood, 4 hr post dose (TABLE 9)
[10] = single dose, peripheral blood, 4 hr post dose (TABLE 10)
[11] = single dose, peripheral blood, 6 hr post dose (TABLE 9)
[12] = single dose, peripheral blood, 6 hr post dose (TABLE 10)

Sequence of VLA-4 (a4b1) (P13612 34-1032): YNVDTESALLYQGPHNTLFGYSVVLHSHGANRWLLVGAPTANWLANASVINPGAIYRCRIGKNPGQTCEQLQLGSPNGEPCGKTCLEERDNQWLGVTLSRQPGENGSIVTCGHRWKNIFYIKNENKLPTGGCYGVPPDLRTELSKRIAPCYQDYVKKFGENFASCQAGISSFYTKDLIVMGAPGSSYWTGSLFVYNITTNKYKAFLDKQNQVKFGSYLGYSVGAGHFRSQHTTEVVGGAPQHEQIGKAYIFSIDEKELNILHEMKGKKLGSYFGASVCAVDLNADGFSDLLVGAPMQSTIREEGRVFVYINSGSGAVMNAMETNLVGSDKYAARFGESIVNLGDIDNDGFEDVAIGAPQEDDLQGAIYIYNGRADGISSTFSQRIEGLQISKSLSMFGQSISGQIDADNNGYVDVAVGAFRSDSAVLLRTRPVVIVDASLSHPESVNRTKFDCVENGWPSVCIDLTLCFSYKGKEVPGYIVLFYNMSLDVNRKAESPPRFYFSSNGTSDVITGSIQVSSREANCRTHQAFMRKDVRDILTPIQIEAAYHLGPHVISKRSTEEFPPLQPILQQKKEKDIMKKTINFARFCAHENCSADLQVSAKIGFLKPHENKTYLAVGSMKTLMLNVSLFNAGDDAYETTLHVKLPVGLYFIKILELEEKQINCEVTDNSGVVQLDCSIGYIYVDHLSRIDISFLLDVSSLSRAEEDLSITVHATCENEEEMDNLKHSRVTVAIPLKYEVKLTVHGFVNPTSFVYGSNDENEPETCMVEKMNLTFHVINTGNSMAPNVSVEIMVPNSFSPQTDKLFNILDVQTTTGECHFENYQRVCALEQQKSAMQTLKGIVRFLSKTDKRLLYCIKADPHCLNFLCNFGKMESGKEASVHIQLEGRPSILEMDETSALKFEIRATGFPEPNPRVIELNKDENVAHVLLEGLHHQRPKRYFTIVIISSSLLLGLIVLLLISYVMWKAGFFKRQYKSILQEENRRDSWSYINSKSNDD
Sequence of VLA-4 (a4b1) (P05556 21-798): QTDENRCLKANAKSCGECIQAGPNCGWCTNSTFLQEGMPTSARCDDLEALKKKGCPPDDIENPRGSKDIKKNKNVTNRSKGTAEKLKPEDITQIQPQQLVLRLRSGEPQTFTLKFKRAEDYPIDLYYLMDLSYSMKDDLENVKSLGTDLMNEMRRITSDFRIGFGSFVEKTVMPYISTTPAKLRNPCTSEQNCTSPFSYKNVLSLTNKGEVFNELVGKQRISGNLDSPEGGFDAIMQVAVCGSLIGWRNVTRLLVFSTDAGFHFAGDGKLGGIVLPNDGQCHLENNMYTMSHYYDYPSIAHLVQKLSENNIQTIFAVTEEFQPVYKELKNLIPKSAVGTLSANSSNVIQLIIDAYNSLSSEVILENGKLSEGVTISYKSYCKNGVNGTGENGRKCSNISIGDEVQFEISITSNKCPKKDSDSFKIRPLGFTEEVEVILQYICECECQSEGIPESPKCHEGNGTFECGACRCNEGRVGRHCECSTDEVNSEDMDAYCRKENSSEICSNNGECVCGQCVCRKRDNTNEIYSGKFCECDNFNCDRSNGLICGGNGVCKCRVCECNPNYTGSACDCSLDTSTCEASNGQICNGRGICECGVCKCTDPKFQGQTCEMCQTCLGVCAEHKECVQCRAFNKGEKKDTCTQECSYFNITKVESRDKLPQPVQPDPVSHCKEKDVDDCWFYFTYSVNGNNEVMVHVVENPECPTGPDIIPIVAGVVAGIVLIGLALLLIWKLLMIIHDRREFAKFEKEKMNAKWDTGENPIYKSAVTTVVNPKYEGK
Sequence of integrin a4b7 (P13612 34-970): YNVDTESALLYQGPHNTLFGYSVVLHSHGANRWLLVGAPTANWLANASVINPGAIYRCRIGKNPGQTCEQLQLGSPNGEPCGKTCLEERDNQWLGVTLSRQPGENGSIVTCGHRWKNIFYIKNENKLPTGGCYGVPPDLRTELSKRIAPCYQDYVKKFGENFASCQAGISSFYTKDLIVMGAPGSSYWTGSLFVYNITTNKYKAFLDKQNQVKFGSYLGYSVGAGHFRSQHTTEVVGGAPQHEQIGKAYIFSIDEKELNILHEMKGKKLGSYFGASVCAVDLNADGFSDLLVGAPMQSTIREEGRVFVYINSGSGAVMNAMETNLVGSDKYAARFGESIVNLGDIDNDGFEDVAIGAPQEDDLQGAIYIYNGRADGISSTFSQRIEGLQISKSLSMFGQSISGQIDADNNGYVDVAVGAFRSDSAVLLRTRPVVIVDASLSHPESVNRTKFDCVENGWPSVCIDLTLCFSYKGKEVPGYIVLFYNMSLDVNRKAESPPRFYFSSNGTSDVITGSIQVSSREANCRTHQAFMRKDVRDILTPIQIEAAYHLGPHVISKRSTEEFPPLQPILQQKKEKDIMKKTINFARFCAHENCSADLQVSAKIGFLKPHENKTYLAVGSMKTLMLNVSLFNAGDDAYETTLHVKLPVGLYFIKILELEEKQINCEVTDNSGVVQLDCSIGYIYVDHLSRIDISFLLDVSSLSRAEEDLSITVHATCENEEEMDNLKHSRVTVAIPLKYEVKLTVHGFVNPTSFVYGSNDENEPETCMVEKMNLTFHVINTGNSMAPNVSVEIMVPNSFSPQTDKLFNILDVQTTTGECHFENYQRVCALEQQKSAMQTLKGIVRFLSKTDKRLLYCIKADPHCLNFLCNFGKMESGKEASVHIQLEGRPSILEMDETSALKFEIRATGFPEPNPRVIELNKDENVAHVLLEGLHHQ
Sequence of integrin a4b7 (P26010 20-723): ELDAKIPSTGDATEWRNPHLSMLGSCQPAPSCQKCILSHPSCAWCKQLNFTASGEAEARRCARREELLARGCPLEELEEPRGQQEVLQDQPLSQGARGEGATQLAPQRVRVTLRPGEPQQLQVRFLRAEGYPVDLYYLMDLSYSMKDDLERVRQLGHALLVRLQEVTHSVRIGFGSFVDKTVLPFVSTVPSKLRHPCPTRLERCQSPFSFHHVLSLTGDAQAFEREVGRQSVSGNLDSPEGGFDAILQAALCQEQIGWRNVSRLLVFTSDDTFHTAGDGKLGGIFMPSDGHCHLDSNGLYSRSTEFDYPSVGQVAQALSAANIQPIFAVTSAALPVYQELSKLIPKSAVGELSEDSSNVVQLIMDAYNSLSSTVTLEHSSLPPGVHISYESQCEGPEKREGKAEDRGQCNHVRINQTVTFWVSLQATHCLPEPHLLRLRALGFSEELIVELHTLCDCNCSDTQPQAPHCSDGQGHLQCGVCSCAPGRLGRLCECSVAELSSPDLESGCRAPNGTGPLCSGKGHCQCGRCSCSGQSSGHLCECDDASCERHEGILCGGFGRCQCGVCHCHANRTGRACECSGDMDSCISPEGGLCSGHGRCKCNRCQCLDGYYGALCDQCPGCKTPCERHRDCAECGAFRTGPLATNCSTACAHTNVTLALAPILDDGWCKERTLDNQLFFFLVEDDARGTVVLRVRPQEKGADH

SMILES: COCCOCCOCCOCCOCCOCCOCCOCCOCCOCCOCCOCCOCCOCCOCCOCCOCCOCCOCCOCCOCCOCCOCCOCCOCc1cc(OC)c(-c2ccc(C[C@H](NC(=O)[C@@H]3CCCN3S(=O)(=O)c3cc(Cl)cc(Cl)c3)C(=O)O)cc2)c(OC)c1 [Example 1]
IC50 ([1]; as listed in TABLE 7, read-out: sVCAM IC50): 0.373 nM | IC50 ([1]; as listed in TABLE 8, read-out: sVCAM IC50): 0.373 nM | IC50 [1, 4]: 0.373 nM | IC50 [1, 5]: 0.373 nM | IC50 ([1]; as listed in TABLE 11, read-out: sVCAM IC50): 0.373 nM | IC50 ([1]; as listed in TABLE 12, read-out: sVCAM IC50): 0.373 nM | IC50 ([1]; as listed in TABLE 14, read-out: sVCAM IC50): 0.373 nM | IC50 ([1]; as listed in TABLE 15, read-out: sVCAM IC50): 0.373 nM | IC50 ([1]; as listed in TABLE 17, read-out: sVCAM IC50): 0.373 nM | IC50 ([1]; as listed in TABLE 18, read-out: sVCAM IC50): 0.373 nM | IC50 [1, 6]: 0.373 nM | HSPC mobilization in the triple combination regimen with plerixafor and truncated Groβ [2]: high degree of extended mobilization | No. CFU (×10^3)/mL ± SD, 2 hr ([2]; alone or in combination with Plerixafor and tGroβ, peripheral blood, 2 hr (TABLE 17)): 5.69 ± 2.57 (×10^3)/mL | No. CFU (×10^3)/mL ± SD, 4 hr ([2]; alone or in combination with Plerixafor and tGroβ, peripheral blood, 4 hr (TABLE 17)): 4.82 ± 1.07 (×10^3)/mL | No. CFU (×10^3)/mL ± SD, 6 hr ([2]; alone or in combination with Plerixafor and tGroβ, peripheral blood, 6 hr (TABLE 17)): 2.97 ± 0.65 (×10^3)/mL | HSPC mobilization, result in words ([2]; single dose): significant HSPC mobilization at 4 hours | No. CFU (×10^3)/mL ± SD, 2 hr ([2]; single dose alone or in combination with AMD3100 (5 mg/kg s.c.), peripheral blood, 2 hr (TABLE 14)): 5.94 ± 4.52 (×10^3)/mL | No. CFU (×10^3)/mL ± SD, 3 hr ([2]; single dose alone or in combination with AMD3100 (5 mg/kg s.c.), peripheral blood, 3 hr (TABLE 14)): 6.42 ± 4.64 (×10^3)/mL | No. CFU (×10^3)/mL ± SD, 5 hr ([2]; single dose alone or in combination with AMD3100 (5 mg/kg s.c.), peripheral blood, 5 hr (TABLE 14)): 5.02 ± 1.67 (×10^3)/mL | No. CFU (x10^3)/mL ± SD, 4 hr ([2]; single dose alone or in combination with Plerixafor (5 mg/kg s.c.), peripheral blood, 4 hr (TABLE 15)): 2.65 ± 1.15 (x10^3)/mL | No. CFU (x10^3)/mL ± SD, 6 hr ([2]; single dose alone or in combination with Plerixafor (5 mg/kg s.c.), peripheral blood, 6 hr (TABLE 15)): 1.43 ± 0.56 (x10^3)/mL | No. CFU (x10^3)/mL ± SD, 24 hr ([2]; single dose alone or in combination with Plerixafor (5 mg/kg s.c.), peripheral blood, 24 hr (TABLE 15)): 0.22 ± 0.10 (x10^3)/mL | effect on extended HSPC mobilization in combination with a single dose of the CXCR4 inhibitor AMD3100 (Plerixafor) ([2]; single dose of each agent): synergistic effects | No. CFU (×10^3)/mL ± SD, 0.25 hr ([2]; single dose, peripheral blood, 0.25 hr post dose (TABLE 8)): 4.10 ± 1.53 (×10^3)/mL | No. CFU (×10^3)/mL ± SD, 0.5 hr ([2]; single dose, peripheral blood, 0.5 hr post dose (TABLE 7)): 1.22 ± 0.35 (×10^3)/mL | No. CFU (×10^3)/mL ± SD, 2 hr ([2]; single dose, peripheral blood, 2 hr post dose (TABLE 7)): 2.12 ± 1.04 (×10^3)/mL | No. CFU (×10^3)/mL ± SD, 2 hr ([2]; single dose, peripheral blood, 2 hr post dose (TABLE 8)): 4.79 ± 2.05 (×10^3)/mL | No. CFU (×10^3)/mL ± SD, 2 hr [2, 7]: 4.72 ± 1.19 (×10^3)/mL | No. CFU (×10^3)/mL ± SD, 2 hr [2, 8]: 4.18 ± 1.99 (×10^3)/mL | No. CFU (x10^3)/mL ± SD, 2 hr ([2]; single dose, peripheral blood, 2 hr post dose (TABLE 11)): 3.14 ± 0.63 (x10^3)/mL | No. CFU (×10^3)/mL ± SD, 4 hr ([2]; single dose, peripheral blood, 4 hr post dose (TABLE 7)): 2.30 ± 0.25 (×10^3)/mL | No. CFU (×10^3)/mL ± SD, 4 hr ([2]; single dose, peripheral blood, 4 hr post dose (TABLE 8)): 4.43 ± 0.66 (×10^3)/mL | No. CFU (×10^3)/mL ± SD, 4 hr [2, 9]: 5.00 ± 1.26 (×10^3)/mL | No. CFU (×10^3)/mL ± SD, 4 hr [2, 10]: 4.41 ± 0.89 (×10^3)/mL | No. CFU (x10^3)/mL ± SD, 4 hr ([2]; single dose, peripheral blood, 4 hr post dose (TABLE 11)): 4.14 ± 1.31 (x10^3)/mL | No. CFU (×10^3)/mL ± SD, 4 hr ([2]; single dose, peripheral blood, 4 hr post dose (TABLE 18)): 5.18 ± 1.99 (×10^3)/mL | No. CFU (×10^3)/mL ± SD, 6 hr [2, 11]: 1.84 ± 0.63 (×10^3)/mL | No. CFU (×10^3)/mL ± SD, 6 hr [2, 12]: 1.78 ± 0.38 (×10^3)/mL | No. CFU (x10^3)/mL ± SD, 6 hr ([2]; single dose, peripheral blood, 6 hr post dose (TABLE 11)): 2.20 ± 0.63 (x10^3)/mL | No. CFU (×10^3)/mL ± SD, 8 hr ([2]; single dose, peripheral blood, 8 hr post dose (TABLE 18)): 2.00 ± 0.66 (×10^3)/mL | No. CFU (x10^3)/mL ± SD, 24 hr ([2]; single dose, peripheral blood, 24 hr post dose (TABLE 11)): 0.29 ± 0.11 (x10^3)/mL | No. CFU (×10^3)/mL ± SD, 24 hr ([2]; single dose, peripheral blood, 24 hr post dose (TABLE 18)): 0.46 ± 0.30 (×10^3)/mL | No. CFU (x10^3)/mL ± SD, 2 hr ([2]; single injection, peripheral blood, 2 hr post dose (TABLE 12)): 4.72 ± 0.33 (x10^3)/mL | No. CFU (x10^3)/mL ± SD, 4 hr ([2]; single injection, peripheral blood, 4 hr post dose (TABLE 12)): 3.38 ± 0.21 (x10^3)/mL | No. CFU (x10^3)/mL ± SD, 6 hr ([2]; single injection, peripheral blood, 6 hr post dose (TABLE 12)): 2.87 ± 0.39 (x10^3)/mL | No. CFU (x10^3)/mL ± SD, 8 hr ([2]; single injection, peripheral blood, 8 hr post dose (TABLE 12)): 1.12 ± 0.48 (x10^3)/mL | IC50 [3]: 5.6 nM

IC50 [1, 4]: 0.833 nM | IC50 [1, 5]: 0.833 nM | IC50 [1, 6]: 0.833 nM | IC50 [3]: 5.4 nM
SMILES: COCCOCCOCCOCCOCCOCCOCCOCCOCCOCCOCCOCCOCCOCCOCCOCCOCCOCCOCCOCCOCCOCCOCCOCCOCCOCCOCCOCCOCCOCCOCCOCCOCCOCCOCCOCCOCc1cc(OC)c(-c2ccc(C[C@H](NC(=O)[C@@H]3CCCN3S(=O)(=O)c3cc(Cl)cc(Cl)c3)C(=O)O)cc2)c(OC)c1 [Example 2]
No. CFU (×10^3)/mL ± SD, 2 hr [2, 7]: 4.10 ± 1.40 (×10^3)/mL | No. CFU (×10^3)/mL ± SD, 2 hr [2, 8]: 4.42 ± 1.41 (×10^3)/mL | No. CFU (×10^3)/mL ± SD, 4 hr [2, 9]: 4.98 ± 1.88 (×10^3)/mL | No. CFU (×10^3)/mL ± SD, 4 hr [2, 10]: 3.59 ± 0.93 (×10^3)/mL | No. CFU (×10^3)/mL ± SD, 6 hr [2, 11]: 1.87 ± 0.58 (×10^3)/mL | No. CFU (×10^3)/mL ± SD, 6 hr [2, 12]: 2.12 ± 0.84 (×10^3)/mL
